Laboratory results as given in PubChem BioAssay AID256 (DTP/NCI, 2004).
Values joined by “and” are separate entries in the source; they are usually repeats but may differ in a detail not shown here. Equal values may be shown once. Toxic doses and inconclusive results are not listed. How the source made its calls: active means survival T/C of 150% or more; inactive means T/C below 125% in these data.

Test system: CD2F1 mice, L1210 leukemia ip, survival T/C
Assay: NCI In Vivo Anticancer Drug Screen. Data for tumor model L1210 Leukemia (intraperitoneal) in CD2F1 (CDF1) mice
Conditions: higher = longer survival
Procedure, shortened: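 Each value reflects a quotient of treated over vehicle control outcomes in mice with a transplanted tumor.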

[1] = endpoint: mean survival time, dose: 100.0 mg/kg/injection, schedule: Q04DX003 (ip), vehicle: saline with Tween-80
[2] = endpoint: mean survival time, dose: 200.0 mg/kg/injection, schedule: Q04DX003 (ip), vehicle: saline with Tween-80
[3] = endpoint: mean survival time, dose: 400.0 mg/kg/injection, schedule: Q04DX003 (ip), vehicle: saline with Tween-80
[4] = endpoint: mean survival time, dose: 100.0 mg/kg/injection, schedule: Q01DX001 (ip), vehicle: saline with Tween-80
[5] = endpoint: mean survival time, dose: 200.0 mg/kg/injection, schedule: Q01DX001 (ip), vehicle: saline with Tween-80
[6] = endpoint: mean survival time, dose: 400.0 mg/kg/injection, schedule: Q01DX001 (ip), vehicle: saline with Tween-80
[7] = endpoint: mean survival time, dose: 50.0 mg/kg/injection, schedule: Q01DX009 (ip), vehicle: saline with Tween-80
[8] = endpoint: mean survival time, dose: 100.0 mg/kg/injection, schedule: Q01DX009 (ip), vehicle: saline with Tween-80
[9] = endpoint: mean survival time, dose: 200.0 mg/kg/injection, schedule: Q01DX009 (ip), vehicle: saline with Tween-80
[10] = endpoint: mean survival time, dose: 100.0 mg/kg/injection, schedule: Q04DX003 (ip), vehicle: saline
[11] = endpoint: mean survival time, dose: 200.0 mg/kg/injection, schedule: Q04DX003 (ip), vehicle: saline
[12] = endpoint: mean survival time, dose: 400.0 mg/kg/injection, schedule: Q04DX003 (ip), vehicle: saline
[13] = endpoint: mean survival time, dose: 50.0 mg/kg/injection, schedule: Q01DX009 (ip), vehicle: saline
[14] = endpoint: mean survival time, dose: 100.0 mg/kg/injection, schedule: Q01DX009 (ip), vehicle: saline
[15] = endpoint: mean survival time, dose: 400.0 mg/kg/injection, schedule: Q01DX009 (ip), vehicle: saline with Tween-80
[16] = endpoint: mean survival time, dose: 100.0 mg/kg/injection, schedule: Q01DX009 (ip), vehicle: saline sonified
[17] = endpoint: mean survival time, dose: 200.0 mg/kg/injection, schedule: Q01DX009 (ip), vehicle: saline sonified
[18] = endpoint: mean survival time, dose: 400.0 mg/kg/injection, schedule: Q01DX009 (ip), vehicle: saline sonified
[19] = endpoint: mean survival time, dose: 200.0 mg/kg/injection, schedule: Q01DX009 (ip), vehicle: saline
[20] = endpoint: mean survival time, dose: 400.0 mg/kg/injection, schedule: Q01DX009 (ip), vehicle: saline

Measured: T/C

COC(=S)C(c1ccccc1)(c1ccccc1)c1ccccc1
inactive: endpoint: mean survival time, dose: 100.0 mg/kg/injection, schedule: Q04DX002 (ip), vehicle: Klucel (hydroxypropylcellulose) (HPC) 93 % of control | endpoint: mean survival time, dose: 200.0 mg/kg/injection, schedule: Q04DX002 (ip), vehicle: Klucel (hydroxypropylcellulose) (HPC) 89 % of control | endpoint: mean survival time, dose: 400.0 mg/kg/injection, schedule: Q04DX002 (ip), vehicle: Klucel (hydroxypropylcellulose) (HPC) 89 % of control

ClC(Cl)(Cl)C(c1ccccc1)c1ccccc1
inactive: endpoint: mean survival time, dose: 50.0 mg/kg/injection, schedule: Q01DX009 (ip), vehicle: Klucel (hydroxypropylcellulose) (HPC) 96 % of control | endpoint: mean survival time, dose: 100.0 mg/kg/injection, schedule: Q01DX009 (ip), vehicle: Klucel (hydroxypropylcellulose) (HPC) 93 % of control | [1] 101 % of control | endpoint: mean survival time, dose: 200.0 mg/kg/injection, schedule: Q01DX009 (ip), vehicle: Klucel (hydroxypropylcellulose) (HPC) 93 % of control | [2] 95 % of control | [3] 90 % of control

CCCCCCCCCCCC[n+]1ccc(C#N)cc1
inactive: endpoint: mean survival time, dose: 9.38 mg/kg/injection, schedule: Q01DX001 (ip), vehicle: saline 103 % of control | endpoint: mean survival time, dose: 18.75 mg/kg/injection, schedule: Q01DX001 (ip), vehicle: saline 94 % of control

CCC(CC(N)=O)C(C#N)(C#N)C(N)=O (centres undefined)
inactive: [4] 100 % of control | [5] 98 % of control | [6] 98 % of control

O=C(C=C(C(F)(F)F)C(F)(F)F)c1ccc(C(=O)C=C(C(F)(F)F)C(F)(F)F)cc1
inactive: [1] 105 % of control | [2] 93 % of control

O=C(O)/C(Br)=C/c1ccccc1
inactive: [7] 100 % of control | [8] 90 % of control | [1] 103 % of control | [9] 90 % of control | [2] 110 % of control | [3] 110 % of control

Nc1cccc2c(S(=O)(=O)O)cccc12
inactive: [10] 100 % of control | [11] 100 % of control | [12] 97 % of control

CCOC(=O)Cc1nnc2ncnc(N)c2n1
inactive: endpoint: mean survival time, dose: 100.0 mg/kg/injection, schedule: Q01DX001 (ip), vehicle: other 101 % of control | endpoint: mean survival time, dose: 200.0 mg/kg/injection, schedule: Q01DX001 (ip), vehicle: other 103 % of control | endpoint: mean survival time, dose: 400.0 mg/kg/injection, schedule: Q01DX001 (ip), vehicle: other 98 % of control

CC(C)(C)OC(=O)NC(CSCc1ccccc1)C(=O)Oc1ccc([N+](=O)[O-])cc1 (centres undefined)
inactive: [1] 95 % of control | [2] 90 % of control | [3] 86 % of control

OC1CC2CC2CC1O (centres undefined)
inactive: [1] 103 % of control | [2] 92 % of control | [3] 96 % of control

CC(C)(SCC(N)C(=O)O)c1ccc(-c2ccccc2)cc1 (centres undefined)
inactive: [4] 88 % of control | [5] 86 % of control | [6] 91 % of control

O=C(O)c1cc2ccccc2cn1
inactive: [13] 108 % of control | [14] 95 % of control

O=C(O)c1ccc(CC23CC4CC(CC(C4)C2)C3)cc1
inactive: [4] 91 % of control | [8] 96 % of control | [9] 91 % of control | [6] 91 % of control | [15] 86 % of control

C[N+](C)(C)CC1CO1 (centres undefined)
inactive: [10] 106 % of control | [11] 94 % of control

O=P(c1ccccc1)(c1ccccc1)P(=O)(c1ccccc1)c1ccccc1
inactive: [4] 90 % of control | [5] 90 % of control | [6] 96 % of control

CC(=O)NC1CC(n2cnc3c(=O)[nH]cnc32)OC1C(C)O (centres undefined)
inactive: endpoint: mean survival time, dose: 12.5 mg/kg/injection, schedule: Q01DX005 (ip), vehicle: water 101 % of control | endpoint: mean survival time, dose: 25.0 mg/kg/injection, schedule: Q01DX005 (ip), vehicle: water 98 % of control | endpoint: mean survival time, dose: 50.0 mg/kg/injection, schedule: Q01DX005 (ip), vehicle: water 101 % of control | endpoint: mean survival time, dose: 100.0 mg/kg/injection, schedule: Q01DX005 (ip), vehicle: water 98 % of control | endpoint: mean survival time, dose: 200.0 mg/kg/injection, schedule: Q01DX005 (ip), vehicle: water 92 % of control

COCCOCCOCCOCCOCCOCCOCCOC(=O)Nc1ccc(C)c(NC(=O)OCCOCCOCCOCCOCCOCCOCCOC)c1
inactive: [16] 96 % of control | [10] 96 % of control | [17] 96 % of control | [11] 100 % of control | [18] 93 % of control | [12] 100 % of control

CC(c1ccc2ccccc2c1)C1CCCCC1C(=O)O (centres undefined)
inactive: [8] 102 % of control | [9] 100 % of control | [15] 97 % of control

NC(CC(=O)NO)C(=O)O (centres undefined)
inactive: endpoint: mean survival time, dose: 12.5 mg/kg/injection, schedule: Q01DX009 (ip), vehicle: saline 95 % of control | endpoint: mean survival time, dose: 25.0 mg/kg/injection, schedule: Q01DX009 (ip), vehicle: saline 101 % of control | [13] 101 % of control | [14] 95 % of control | [19] 111 % of control and 95 % of control | [20] 103 % of control

O=C1Nc2ccc([N+](=O)[O-])c3c(C(=O)O)ccc1c23
inactive: [1] 98 % of control | [2] 104 % of control | [3] 101 % of control

Cc1ccc(S(=O)(=O)OC2C(O)OC3COC(c4ccccc4)OC3C2OS(=O)(=O)c2ccc(C)cc2)cc1 (centres undefined)
inactive: [4] 94 % of control | [5] 105 % of control | [6] 94 % of control

COc1ccc2c(c1)c(C(=O)O)cc(=O)n2C
inactive: [16] 101 % of control | [1] 97 % of control | [17] 95 % of control | [2] 102 % of control | [18] 95 % of control | [3] 96 % of control

O=C1C=C(NNc2ccccc2)CCC1
inactive: [7] 104 % of control | [8] 100 % of control

CCCCCCCCCCOCCCCCCCCCC
inactive: [14] 95 % of control | [10] 94 % of control | [19] 98 % of control | [11] 101 % of control | [20] 97 % of control | [12] 94 % of control

COC1(c2ccccc2)c2ccccc2C(OC)(c2ccccc2)c2cc(Cl)ccc21 (centres undefined)
inactive: endpoint: mean survival time, dose: 100.0 mg/kg/injection, schedule: Q01DX001 (ip), vehicle: Klucel (hydroxypropylcellulose) (HPC) 96 % of control | endpoint: mean survival time, dose: 200.0 mg/kg/injection, schedule: Q01DX001 (ip), vehicle: Klucel (hydroxypropylcellulose) (HPC) 89 % of control

C/C=C(\C)C(=O)OC1C(C)=C2C(C1OC(=O)CCCCC)C(C)(OC(C)=O)CC(OC(=O)CCC)C1(O)C2OC(=O)C1(C)O (centres undefined)
inactive: endpoint: median survival time, dose: 0.5 mg/kg/injection, schedule: Q01DX005 (ip), vehicle: Klucel (hydroxypropylcellulose) (HPC) 113 % of control | endpoint: median survival time, dose: 1.0 mg/kg/injection, schedule: Q01DX005 (ip), vehicle: Klucel (hydroxypropylcellulose) (HPC) 118 % of control | endpoint: median survival time, dose: 2.0 mg/kg/injection, schedule: Q01DX005 (ip), vehicle: Klucel (hydroxypropylcellulose) (HPC) 122 % of control

CCCCNS(=O)(=O)c1ccccc1
inactive: [1] 97 % of control | [2] 96 % of control

COC(=O)NC1C(C)OC(OC2C/C=C(/C)C3C=CC4C(OC5CC(OC6CC(OC7CC(O)C(O)C(C)O7)C(OC7CC(O)C(OC)C(C)O7)C(C)O6)C(O)C(C)O5)C(C)CC(C)C4C3(C)/C(O)=C3\C(=O)OC4(CC(C)C(CO)=CC4/C=C\2C)C3=O)CC1(C)[N+](=O)[O-] (centres undefined)
inactive: endpoint: median survival time, dose: 12.5 mg/kg/injection, schedule: Q01DX009 (ip), vehicle: water 109 % of control | endpoint: median survival time, dose: 25.0 mg/kg/injection, schedule: Q01DX009 (ip), vehicle: water 118 % of control | endpoint: median survival time, dose: 50.0 mg/kg/injection, schedule: Q01DX009 (ip), vehicle: water 110 % of control
